Experimental findings from patent publication US6573252B1, “Medicine nitrate salts” (priority 1998, dated 2003) are described below.

Series [1] can be described thus: Gastric toxicity (gastric lesion incidence) after oral administration in fasted rats. The class given is in vivo. The conditions noted are these: for Gastric damage (% incidence): rat, in vivo, po, 100 mg/kg. The method, then: Gastric Toxicity of Piroxicam Nitrate Salt (Ex. 1) Compared with Piroxicam
To 3 groups of 10 rats each, kept on empty stomach since 24 hours, orally are administered:
5 ml/Kg of carboxymethylcellulose aqueous suspension 2%.
an amount of nitrate Piroxicam corresponding to 100 mg/kg of Piroxicam in 5 ml/kg of carboxymethylcellulose aqueous suspension 2%.
an amount of hydrocloride Piroxicam corresponding to 100 mg/kg of Piroxicam in 5 ml/kg of carboxymethylcellulose aqueous suspension 2%.
Six hours later the animals are sacrificed and the gastric lesion incidence is evaluated.

Series [2] is described as follows: Gastric damage induced by Aspirin, Alendronate compared with Alendronate nitrate salt. To be noted: rats, after Aspirin 125 mg/Kg, Alendronate dose 80 mg/Kg p.o. The method, then:
Prevention of the Gastric Damage Induced by Aspirin by Administering Alendronate in Comparison with Alendronate Nitrate Salt
Three groups of 5 rats each were treated by oral route with gastric probe as indicated hereinafter:
I group: treated with Alendronate (Alen.) at the dose of 80 mg/Kg.
II group: 1 h before the Alendronate 80 mg/Kg dose, ASpirin (Asp.) was supplied per os at the dose of 125 mg/Kg.
III group: 1 h before the Alendronate nitrate, (Alen.HNO3) corresponding to the Alendronate 80 mg/Kg dose, Aspirin was supplied per os at the dose of 125 mg/Kg.
The evaluation of the gastric damage was carried out sacrificing the animals three hours after the treatment with Alendronate or Alendronate nitrate.

Series [3] in a line: Acute toxicity, single oral dose in rats. The class given is in vivo. The conditions noted are these: single dose 100 mg/kg orally in carboxymethylcellulose aqueous suspension 2% w/v, observation for 14 days. The method, then:
To a group of 10 rats weighing […] a single dose equal to 100 mg/kg of Piroxicam nitrate salt (Example 1), has been administered by cannula orally in a carboxymethylcellulose aqueous suspension 2% w/v.
The animals are kept under obsevation for 14 days.

The next series relates to myeloperoxydase (MPO). Description: Myeloperoxydase activity in intestinal tissue, acute colitis model (2,4,6-trinitrobenzensulphonic acid). It counts as in vivo. To be noted: for Myeloperoxydase activity (unit/mg tissue): rectal route, amount corresponding to 100 mg/kg of 5-ASA, 6 administrations, intestinal tissue (wet). As to the method: Myeloperoxydase Activity of the 5-Aminosalicylic Acid (4-nitroxy)butyl Ester Compared with that of the Corresponding Hydrochloride and Nitrate Salts, in an Acute Colitis Model
4 groups of 6 animals each have been formed. The groups were treated, respectively, with the carrier (carboxymethylcellulose aqueous solution 1%), 100 mg/Kg of 5-ASA, a 5-ASA-NO2.HCl amount corresponding to 100 mg/kg of 5-ASA, an amount of 5-ASA-NO2.HNO3 correspsonding to 100 mg/kg of 5-ASA.
The animals were treated by rectal route with the above compounds at zero time. After one hour the animals were treated with 0.5 ml of a 60 mg/ml solution of 2,4,6,trinitro-benzensulphonic acid in ethyl alcohol 50%. After two hours the animals were treated again by rectal route with the same compounds and at 12 hour intervals up to a total of 6 administrations.
The tissular levels of the myeloperoxydase (MPO) enzym have been measured which is an inflammatory process marker in various tissues, among which the bony-articular one (C. Rathakrishnan et Al., “Release of oxygen radicals by articular chondrocytes: A study of luminol-dependent chemiluminescence and hydrogen peroxide secretion” J. Bone Miner. Res. 7/10 1139-1148 1992).
The myeloperoxydase activity was measured by using a modified version of the experimental model described by Bradley et al. J. Invest. Dermatol. 78, 206-209, 1982. Samples of intestinal tissue were drawn from each animal, which were suspended in 0.1% of hexadecyltrimethylammonium bromide (50 mg/ml) at a pH 6 and homogenized for 15 seconds (Polytron® PT-7 generator). The samples were frozen and then defrosted three times subsequently before being centrifuged (9,000 g) for 2 minutes in an Eppendorf® Benchtop centrifuge. The myeloperoxydase activity was measured by adding 7 μl of the surnatant to 200 μl of o-dianisidine (Sigma) reactant and measuring the optical density variation at 450 nm in a two minute time in a Microtitre Multiscan®. The reactant contained 0.0005% of hydrogen peroxide as substratum for the myeloperoxydase enzym. One unity of the myeloperoxydase activity was defined as the one capable to convert an hydrogen proxide micromole to water in one minute at 22° C. The results are reported in Table II and are expressed as unit number of the myeloperoxydase activity/tissue mg (wet).

Where a name gives a salt, the structure may show the parent alone.

For the compound `CN1C(C(=O)Nc2ccccn2)=C(O)c2ccccc2S1(=O)=O` [Piroxicam.HCl, Piroxicam hydrochloride, reference compound], the “Gastric damage (% incidence)” value in series [1] (6 h) is listed as 100%. As for Alendronate Nitrate Salt [Alen.HNO3], the “reduction of the level of the gastric damage in comparison with Alendronate” value in series [2] is reported as 4 to 5 times.

For Piroxicam Nitrate Salt [Piroxicam.HNO3], in series [1], the “Gastric damage (% incidence)” value turned out to be 20%. The “gastric tolerability (comparison in words)” value in series [1] (rats, 100 mg/kg p.o., compared with Piroxicam hydrochloride) is listed as “improved gastric tolerability compared with Piroxicam hydrochloride”. The toxic symptom presence result in series [3] is reported as “In no one of the animals of the group the toxic symptom presence was noticed”.

As to `Nc1ccc(O)c(C(=O)OCCCCO[N+](=O)[O-])c1.O=[N+]([O-])O` [5-ASA-NO2.HNO3, Nitrate Salt of the 5-amino-2-hydroxybenzoic Acid (4-nitroxy)butyl Ester], the “myeloperoxydase activity (comparison in words)” value with myeloperoxydase (MPO) (acute colitis model, compared with the other groups) was “lower than that of the other groups”. For the same compound, the “pharmacological activity compared with the unsalified compound” value in the series on myeloperoxydase (MPO) (pharmacological model indicated in the examples) was “more active than the unsalified compound”. In the series with myeloperoxydase (MPO), the “Myeloperoxydase activity (unit/mg tissue)” value was determined as 35 ± 13 unit/mg tissue. With `Cl.Nc1ccc(O)c(C(=O)OCCCCO[N+](=O)[O-])c1` [5-ASA-NO2.HCl, Hydrochloride Salt of the 5-Aminosalicylic Acid (4-nitroxy)-butyl Ester, reference compound], the “Myeloperoxydase activity (unit/mg tissue)” value in the series with myeloperoxydase (MPO) amounted to 111 ± 20 unit/mg tissue. The same measure, in the same setting: under `Nc1ccc(O)c(C(=O)O)c1` [Example 5-ASA, 5-aminosalicylic acid, reference compound] stands 72 ± 15 unit/mg tissue.
